Values joined by “and” are separate entries in the source; they are usually repeats but may differ in a detail not shown here. Equal values may be shown once.
Biological target: T1, KCC2 (Homo sapiens, UniProt Q9H2X9)
T1 construct: expressed in transfected cells; host or cells: HEK-293 (ATCC CRL-1573)
T1 sequence (Q9H2X9 1-1116 isoform Q9H2X9-2): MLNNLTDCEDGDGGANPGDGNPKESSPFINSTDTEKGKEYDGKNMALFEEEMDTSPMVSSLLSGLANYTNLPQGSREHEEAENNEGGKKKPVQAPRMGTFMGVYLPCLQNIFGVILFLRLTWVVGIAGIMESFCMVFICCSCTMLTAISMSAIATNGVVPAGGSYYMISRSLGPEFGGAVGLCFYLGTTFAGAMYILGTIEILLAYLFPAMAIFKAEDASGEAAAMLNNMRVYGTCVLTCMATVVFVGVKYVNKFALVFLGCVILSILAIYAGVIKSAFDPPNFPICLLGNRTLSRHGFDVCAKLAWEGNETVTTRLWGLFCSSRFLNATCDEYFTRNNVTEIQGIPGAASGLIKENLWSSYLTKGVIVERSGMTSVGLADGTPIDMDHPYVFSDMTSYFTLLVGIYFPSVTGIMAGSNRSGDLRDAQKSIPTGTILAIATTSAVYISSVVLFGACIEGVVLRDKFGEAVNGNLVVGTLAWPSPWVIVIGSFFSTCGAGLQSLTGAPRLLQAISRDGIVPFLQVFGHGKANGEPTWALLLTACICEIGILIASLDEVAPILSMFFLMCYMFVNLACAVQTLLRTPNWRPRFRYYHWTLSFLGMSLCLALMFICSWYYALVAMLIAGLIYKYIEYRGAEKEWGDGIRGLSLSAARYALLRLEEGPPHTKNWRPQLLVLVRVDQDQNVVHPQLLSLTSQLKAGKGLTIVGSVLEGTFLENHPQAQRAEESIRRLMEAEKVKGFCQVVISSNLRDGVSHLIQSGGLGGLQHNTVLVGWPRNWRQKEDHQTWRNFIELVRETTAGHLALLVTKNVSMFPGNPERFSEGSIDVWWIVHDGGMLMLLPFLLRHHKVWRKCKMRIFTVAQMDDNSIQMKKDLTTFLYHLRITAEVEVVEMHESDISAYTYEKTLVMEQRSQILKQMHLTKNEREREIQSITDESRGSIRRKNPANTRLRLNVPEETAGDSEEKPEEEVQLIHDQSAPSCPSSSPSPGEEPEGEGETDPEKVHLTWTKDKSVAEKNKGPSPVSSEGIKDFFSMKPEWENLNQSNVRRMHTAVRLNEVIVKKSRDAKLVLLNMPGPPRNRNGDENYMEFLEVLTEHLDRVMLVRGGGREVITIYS
Experiment: FLIPR Tl+ flux assay, HEK-293 cells expressing KCC2
Format: cell-based
Procedure: A multi-tiered high-throughput screening assay was used, leveraging a proprietary library of 1.3 million small molecule compounds from AstraZeneca (Cambridge, UK) to identify chemical entities capable of activating KCC2. A single point concentration of 30 μM was used to identify potassium flux using an established thallium […] influx FLIPR assay as the primary read out in HEK-293 cells overexpressing KCC2 (Cardarelli et al., Nat. Med. 23, 1394-1396 (2017); Conway et al., J Biol Chem 292, 21253-21263 (2017); Lee et at, 2022, supra).
Cell Culture and biotinylation. […]
FLIPR TI Flux assay. HEK-293 cells were washed with HBSS, and then incubated with loading buffer containing TI sensitive fluorescent dye (https://www.moleculardevices.com), 20 μM bumetanide 20 μM ouabain and 2.5 mM probenecid for 1 h at room temperature (RT) under control conditions or with drugs in the dark using a FlexStation 3 microplate reader (Molecular Devices) and imaged […] for 30 min. Stimulus buffer was added containing 5 mM K^+/0.5 mM Tl^+ and cells were imaged every 1.5 over a 190 second time course The initial rate Tl^+ uptake (Relative Fluorescence Units (RFU) per second) was determined following addition of the stimulus buffer as outlined previously (Conway et at, 2017, supra) (Lee et at, 2022, supra). […]

SMILES: C[C@@H]1CN(c2nc3c(c(Nc4ccc(C5CCCCC5)cc4)n2)COC3)CCO1 [Compound A, (R)—N-(4-cyclohexylphenyl)-2-(2-methylmorpholino)-5,7-dihydrofuro[3,4-d]pyrimidin-4-amine]
- EC50 (HEK-293 cells expressing KCC2, 1% β-cyclodextrin vehicle, read-out: EC50 for KCC2 as measured by Tl+ flux): 260 nM and 261 nM
- maximum potentiation of KCC2 (saturating concentration of 3 μM, 1% BCD vehicle): 90%

Reference: patent US20250281497A1, “FUSED AMINO PYRIMIDINE COMPOUNDS FOR TREATMENT OF SEIZURE DISORDERS” (Ovid Therapeutics Inc., priority 2024, published 2025)
